Source: patent publication US7838674B2, “Tetracyclic lactame derivatives” (Novartis AG, priority 2007, dated 2010)
Counter-ions that a name gives are not always drawn.

The compounds below were run against T1, MAPKAPK2 enzyme (HIS-MK2, Invitrogen PV4019) (Homo sapiens, UniProt P49137) (assay: Alternative MAPKAPK2 assay (Caliper microfluidic mobility shift, HSP27-peptide)). Conditions: HIS-MK2 0.013 nM, ATP 10 μM, 60 min at 30° C.
T1 construct: His; purchased Invitrogen PV4019
Assay type: biochemical

T1 sequence (P49137 whole entry): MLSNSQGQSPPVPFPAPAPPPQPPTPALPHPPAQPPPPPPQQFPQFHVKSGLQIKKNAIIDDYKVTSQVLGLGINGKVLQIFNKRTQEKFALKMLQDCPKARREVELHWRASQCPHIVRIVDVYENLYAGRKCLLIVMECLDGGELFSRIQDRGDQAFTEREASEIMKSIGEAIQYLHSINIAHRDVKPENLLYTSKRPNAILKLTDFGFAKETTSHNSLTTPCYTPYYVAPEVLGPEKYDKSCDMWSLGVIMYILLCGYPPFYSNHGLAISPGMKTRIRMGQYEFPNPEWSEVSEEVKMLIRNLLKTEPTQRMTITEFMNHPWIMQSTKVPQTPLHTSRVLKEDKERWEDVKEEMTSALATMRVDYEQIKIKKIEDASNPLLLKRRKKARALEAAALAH

In order of falling IC50:
1. Nc1ccc(-c2cc3c(cn2)CCc2c-3[nH]c3c2C(=O)NC2(CCC2)C3)cn1 [Example 101, 2-(1-Amino-cyclobutylmethyl)-8-(6-amino-pyridin-3-yl)-4,5-dihydro-1H-pyrrolo[2,3-f]isoquinoline-3-carboxylic acid lactam]  98 nM
2. COCCN1CC2(CNC(=O)c3c2[nH]c2c3CCc3cnc(-c4cccc(Cl)c4)cc3-2)C1 [Example 181, 2-[3-Aminomethyl-1-(2-methoxy-ethyl)-azetidin-3-yl]-8-(3-chloro-phenyl)-4,5-dihydro-1H-pyrrolo[2,3-f]isoquinoline-3-carboxylic acid lactam]  79 nM
3. O=C1NC2(CC2)Cc2[nH]c3c(c21)CCc1cnc(-c2ccc4c(c2)OCCO4)cc1-3 [Example 66, 2-(1-Amino-cyclopropylmethyl)-8-(2,3-dihydro-benzo[1,4]dioxin-6-yl)-4,5-dihydro-1H-pyrrolo[2,3-f]isoquinoline-3-carboxylic acid lactam]  60 nM
4. C#Cc1cc(-c2cc3c(cn2)CCc2c-3[nH]c3c2C(=O)NCC32CC2)ccc1OC [Example 120, 2-(1-Aminomethyl-cyclopropyl)-8-(3-ethynyl-4-methoxy-phenyl)-4,5-dihydro-1H-pyrrolo[2,3-f]isoquinoline-3-carboxylic acid lactam]  40 nM
5. Cn1c2c(c3c1-c1cc(-c4cncc(-c5ccc(F)cc5)c4)ncc1CC3)C(=O)NC1(CNC1)C2 [Example 136, 2-(3-Amino-azetidin-3-ylmethyl)-8-[5-(4-fluoro-phenyl)-pyridin-3-yl]-1-methyl-4,5-dihydro-1H-pyrrolo[2,3-f]isoquinoline-3-carboxylic acid lactam hydrochloride]  23 nM
6. CN1CC2(C1)c1[nH]c3c(c1C(=O)NC21CC1)CCc1cnc(-c2cccc(F)c2)nc1-3 [Example 213, 2-[3-(1-Amino-cyclopropyl)-1-methyl-azetidin-3-yl]-8-(3-fluoro-phenyl)-4,5-dihydro-1H-1,7,9-triaza-cyclopenta[a]naphthalene-3-carboxylic acid lactam]  19 nM
7. Cn1c2c(c3c1-c1nc(-c4ccc(Br)cc4)ncc1CC3)C(=O)NC1(CNC1)C2 [Example 139, 2-(3-Amino-azetidin-3-ylmethyl)-8-(4-bromo-phenyl)-1-methyl-4,5-dihydro-1H-1,7,9-triaza-cyclopenta[a]naphthalene-3-carboxylic acid lactam hydrochloride]  18 nM
8. COc1ccc(-c2cc3c(cn2)CCc2c4c(n(C)c2-3)CC2(CNC2)NC4=O)cn1 [Example 141, 2-(3-Amino-azetidin-3-ylmethyl)-8-(6-methoxy-pyridin-3-yl)-1-methyl-4,5-dihydro-1H-pyrrolo[2,3-f]isoquinoline-3-carboxylic acid lactam hydrochloride]  17 nM
9. O=C1NCC2(CC2)c2[nH]c3c(c21)CCc1cnc(-c2cccnc2)cc1-3 [Example 125, 2-(1-Aminomethyl-cyclopropyl)-8-pyridin-3-yl-4,5-dihydro-1H-pyrrolo[2,3-f]isoquinoline-3-carboxylic acid lactam]  16 nM
10. CC(C)(N)CCc1ccc(-c2cc3c(cn2)CCc2c-3[nH]c3c2C(=O)NCC32CC2)cc1 [Example 118, 8-[4-(3-Amino-3-methyl-butyl)-phenyl]-2-(1-aminomethyl-cyclopropyl)-4,5-dihydro-1H-pyrrolo[2,3-f]isoquinoline-3-carboxylic acid lactam]  16 nM
11. Cn1c2c(c3c1-c1cc(-c4ccc5c(c4)OCCO5)ncc1CC3)C(=O)NC1(CNC1)C2 [Example 148, 2-(3-Amino-azetidin-3-ylmethyl)-8-(2,3-dihydro-benzo[1,4]dioxin-6-yl)-1-methyl-4,5-dihydro-1H-pyrrolo[2,3-f]isoquinoline-3-carboxylic acid lactam hydrochloride]  15 nM
12. COc1cncc(-c2cc3c(cn2)CCc2c-3[nH]c3c2C(=O)NCC32CC2)c1 [Example 55, 2-(1-Aminomethyl-cyclopropyl)-8-(5-methoxy-pyridin-3-yl)-4,5-dihydro-1H-pyrrolo[2,3-f]isoquinoline-3-carboxylic acid lactam]  11 nM
